Results published in patent US20260131016A1, “NOVEL AURISTATIN ANALOGS AND IMMUNOCONJUGATES THEREOF” (ADCENTRX THERAPEUTICS INC., priority 2021, published 2026).
Square brackets hold non-standard residues; d marks the D form. Peptide text beside a SMILES is read from it. * marks the point of attachment. Dolaproine = CO[C@@H]([C@@H]1CCCN1)[C@@H](C)C(=O)O; Dil = CC[C@H](C)[C@H](NC)[C@@H](CC(=O)O)OC; NMe2Val = CC(C)[C@@H](C(=O)*)N(C)C

Tested on: HCC1954 breast ductal carcinoma
Test: Cell viability (Cell Titer Glo 2.0) in HCC1954, 120 hours
Type: cell-based
Conditions: for IC50[N—Me amide]/IC50[NH-amide]: HCC1954 5-Day Assay, N-methylation of the amide between P4 and P5; for IC50: Homo sapiens, HCC1954, 120 h, read-out: IC50 (nM), in vitro potency in HCC1954
Method: HCC1954 breast ductal carcinoma and T47D cells (ATCC, Manassas, VA, USA) were seeded into 384-well white-walled culture plates and allowed to adhere for 2-4 hours. Cells were then treated at least in duplicate by addition of 5-fold serially diluted test articles prepared at 2× final concentration and incubated at 37° C. for 120 hours. Cell viability following treatment was determined by Cell Titer Glo 2.0 Assay (Promega, Madison, WI, USA) and normalized to non-treated controls. Dose-response relationships were analyzed using GraphPad Prism (La Jolla, CA, USA), and IC50 values were derived from non-linear regression analyses using a 4-parameter logistic equation.

Compound	IC50[N—Me amide]/IC50[NH-amide]	IC50 [nM]
CC[C@H](C)[C@@H]([C@@H](CC(=O)N1CCC[C@H]1[C@H](OC)[C@@H](C)C(=O)N[C@H](C)[C@@H](O)c1ccccc1)OC)N(C)C(=O)[C@@H](NC(=O)[C@H](C(C)C)N(C)C)C(C)C [Auristatin E, reference compound]	23	
CC[C@H](C)[C@@H]([C@@H](CC(=O)N1CCC[C@H]1[C@H](OC)[C@@H](C)C(=O)N[C@@H](Cc1ccccc1)C(=O)OC)OC)N(C)C(=O)[C@@H](NC(=O)[C@H](C(C)C)N(C)C)C(C)C [Auristatin PHE, reference compound] (NMe2Val-V[Dil][Dolaproine]F-OMe)	139	
CC[C@H](C)[C@@H]([C@@H](CC(=O)N1CCC[C@H]1[C@H](OC)[C@@H](C)C(=O)N(C)CCc1cccc(N)c1)OC)N(C)C(=O)[C@@H](NC(=O)[C@@H](C)N(C)C)C(C)C [Compound 3, (S)-N-((3R,4S,5S)-1-((S)-2-((IR,2R)-3-((3-aminophenethyl)(methyl)amino)-1-methoxy-2-methyl-3-oxopropyl)pyrrolidin-1-yl)-3-methoxy-5-methyl-1-oxoheptan-4-yl)-2-((R)-2-(dimethylamino)propanamido)-N,3-dimethylbutanamide]		< 5
CC[C@H](C)[C@@H]([C@@H](CC(=O)N1CCC[C@H]1[C@H](OC)[C@@H](C)C(=O)N(C)CCc1cccc(N)c1)OC)N(C)C(=O)[C@@H](NC(=O)CN(C)C)C(C)C [Compound 4, (S)-N-((3R,4S,5S)-1-((S)-2-((1R,2R)-3-((3-aminophenethyl)(methyl)amino)-1-methoxy-2-methyl-3-oxopropyl)pyrrolidin-1-yl)-3-methoxy-5-methyl-1-oxoheptan-4-yl)-2-(2-(dimethylamino)acetamido)-N,3-dimethylbutanamide]		< 5
CC[C@H](C)[C@@H]([C@@H](CC(=O)N1CCC[C@H]1[C@H](OC)[C@@H](C)C(=O)N(C)CCc1cccc(N)c1)OC)N(C)C(=O)[C@@H](NC(=O)C(C)(C)CN(C)C)C(C)C [Compound 5, (S)-N-((3R,4S,5S)-1-((S)-2-((1R,2R)-3-((3-aminophenethyl)(methyl)amino)-1-methoxy-2-methyl-3-oxopropyl)pyrrolidin-1-yl)-3-methoxy-5-methyl-1-oxoheptan-4-yl)-2-(3-(dimethylamino)-2,2-dimethylpropanamido)-N,3-dimethylbutanamide]		5 to 10
CC[C@H](C)[C@@H]([C@@H](CC(=O)N1CCC[C@H]1[C@H](OC)[C@@H](C)C(=O)N(C)CCc1cccc(N)c1)OC)N(C)C(=O)[C@@H](NC(=O)[C@@H]1CCCN(C)C1)C(C)C [Compound 6, (R)-N-((S)-1-(((3R,4S,5S)-1-((S)-2-((IR,2R)-3-((3-aminophenethyl)(methyl)amino)-1-methoxy-2-methyl-3-oxopropyl)pyrrolidin-1-yl)-3-methoxy-5-methyl-1-oxoheptan-4-yl)(methyl)amino)-3-methyl-1-oxobutan-2-yl)-1-methylpiperidine-3-carboxamide]		> 10
CC[C@H](C)[C@@H]([C@@H](CC(=O)N1CCC[C@H]1[C@H](OC)[C@@H](C)C(=O)N(C)CCc1cccc(N)c1)OC)N(C)C(=O)[C@@H](NC(=O)C(C)(C)N(C)C)C(C)C [Compound 7, (S)-N-((3R,4S,5S)-1-((S)-2-((IR,2R)-3-((3-aminophenethyl)(methyl)amino)-1-methoxy-2-methyl-3-oxopropyl)pyrrolidin-1-yl)-3-methoxy-5-methyl-1-oxoheptan-4-yl)-2-(2-(dimethylamino)-2-methylpropanamido)-N,3-dimethylbutanamide]		< 5
CC[C@H](C)[C@@H]([C@@H](CC(=O)N1CCC[C@H]1[C@H](OC)[C@@H](C)C(=O)N(C)CCc1cccc(N)c1)OC)N(C)C(=O)[C@@H](NC(=O)[C@@H]1CCCN1C)C(C)C [Compound 8]		< 5
CC[C@H](C)[C@@H]([C@@H](CC(=O)N1CCC[C@H]1[C@H](OC)[C@@H](C)C(=O)N(C)CCc1cccc(N)c1)OC)N(C)C(=O)[C@@H](NC(=O)[C@H]1CCCN1C)C(C)C [Compound 9, (R)-N-((S)-1-(((3R,4S,5S)-1-((S)-2-((1R,2R)-3-((3-aminophenethyl)(methyl)amino)-1-methoxy-2-methyl-3-oxopropyl)pyrrolidin-1-yl)-3-methoxy-5-methyl-1-oxoheptan-4-yl)(methyl)amino)-3-methyl-1-oxobutan-2-yl)-1-methylpyrrolidine-2-carboxamide]		< 5
CC[C@H](C)[C@@H]([C@@H](CC(=O)N1CCC[C@H]1[C@H](OC)[C@@H](C)C(=O)N(C)CCc1cccc(N)c1)OC)N(C)C(=O)[C@@H](NC(=O)[C@@H]1CCN(C)C1)C(C)C [Compound 10, (R)-N-((S)-1-(((3R,4S,5S)-1-((S)-2-((IR,2R)-3-((3-aminophenethyl)(methyl)amino)-1-methoxy-2-methyl-3-oxopropyl)pyrrolidin-1-yl)-3-methoxy-5-methyl-1-oxoheptan-4-yl)(methyl)amino)-3-methyl-1-oxobutan-2-yl)-1-methylpyrrolidine-3-carboxamide]		> 10
CC[C@H](C)[C@@H]([C@@H](CC(=O)N1CCC[C@H]1[C@H](OC)[C@@H](C)C(=O)N(C)CCc1cccc(N)c1)OC)N(C)C(=O)[C@@H](NC(=O)[C@H]1CCCCN1C)C(C)C [Compound 11, (R)-N-((S)-1-(((3R,4S,5S)-1-((S)-2-((1R,2R)-3-((3-aminophenethyl)(methyl)amino)-1-methoxy-2-methyl-3-oxopropyl)pyrrolidin-1-yl)-3-methoxy-5-methyl-1-oxoheptan-4-yl)(methyl)amino)-3-methyl-1-oxobutan-2-yl)-1-methylpiperidine-2-carboxamide]		< 5
CC[C@H](C)[C@@H]([C@@H](CC(=O)N1CCC[C@H]1[C@H](OC)[C@@H](C)C(=O)N(C)CCc1cccc(N)c1)OC)N(C)C(=O)[C@@H](NC(=O)C1(N(C)C)CCC1)C(C)C [Compound 12, N-((S)-1-(((3R,4S,5S)-1-((S)-2-((IR,2R)-3-((3-aminophenethyl)(methyl)amino)-1-methoxy-2-methyl-3-oxopropyl)pyrrolidin-1-yl)-3-methoxy-5-methyl-1-oxoheptan-4-yl)(methyl)amino)-3-methyl-1-oxobutan-2-yl)-1-(dimethylamino)cyclobutanecarboxamide]		< 5
CC[C@H](C)[C@@H]([C@@H](CC(=O)N1CCC[C@H]1[C@H](OC)[C@@H](C)C(=O)N(C)CCc1cccc(N)c1)OC)N(C)C(=O)[C@@H](NC(=O)[C@@H]1CCCCN1C)C(C)C [Compound 13, (S)-N-((S)-1-(((3R,4S,5S)-1-((S)-2-((IR,2R)-3-((3-aminophenethyl)(methyl)amino)-1-methoxy-2-methyl-3-oxopropyl)pyrrolidin-1-yl)-3-methoxy-5-methyl-1-oxoheptan-4-yl)(methyl)amino)-3-methyl-1-oxobutan-2-yl)-1-methylpiperidine-2-carboxamide]		< 5
CC[C@H](C)[C@@H]([C@@H](CC(=O)N1CCC[C@H]1[C@H](OC)[C@@H](C)C(=O)N(C)CCc1ccccc1N)OC)N(C)C(=O)[C@@H](NC(=O)[C@@H](C(C)C)N(C)C)C(C)C [Compound 15, (S)-N-((3R,4S,5S)-1-((S)-2-((1R,2R)-3-((2-aminophenethyl)(methyl)amino)-1-methoxy-2-methyl-3-oxopropyl)pyrrolidin-1-yl)-3-methoxy-5-methyl-1-oxoheptan-4-yl)-2-((R)-2-(dimethylamino)-3-methylbutanamido)-N,3-dimethylbutanamide]		< 5
CC[C@H](C)[C@@H]([C@@H](CC(=O)N1CCC[C@H]1[C@H](OC)[C@@H](C)C(=O)N(C)CCc1ccccc1N)OC)N(C)C(=O)[C@@H](NC(=O)[C@@H](C)N(C)C)C(C)C [Compound 17, (S)-N-((3R,4S,5S)-1-((S)-2-((1R,2R)-3-((2-aminophenethyl)(methyl)amino)-1-methoxy-2-methyl-3-oxopropyl)pyrrolidin-1-yl)-3-methoxy-5-methyl-1-oxoheptan-4-yl)-2-((R)-2-(dimethylamino)propanamido)-N,3-dimethylbutanamide]		< 5
CC[C@H](C)[C@@H]([C@@H](CC(=O)N1CCC[C@H]1[C@H](OC)[C@@H](C)C(=O)N(C)CCc1ccccc1N)OC)N(C)C(=O)[C@@H](NC(=O)CN(C)C)C(C)C [Compound 18, (S)-N-((3R,4S,5S)-1-((S)-2-((1R,2R)-3-((2-aminophenethyl)(methyl)amino)-1-methoxy-2-methyl-3-oxopropyl)pyrrolidin-1-yl)-3-methoxy-5-methyl-1-oxoheptan-4-yl)-2-(2-(dimethylamino)acetamido)-N,3-dimethylbutanamide]		5 to 10
CC[C@H](C)[C@@H]([C@@H](CC(=O)N1CCC[C@H]1[C@H](OC)[C@@H](C)C(=O)N(C)CCc1ccc(N)cc1)OC)N(C)C(=O)[C@@H](NC(=O)CN(C)C)C(C)C [Compound 27, (S)-N-((3R,4S,5S)-1-((S)-2-((IR,2R)-3-((4-aminophenethyl)(methyl)amino)-1-methoxy-2-methyl-3-oxopropyl)pyrrolidin-1-yl)-3-methoxy-5-methyl-1-oxoheptan-4-yl)-2-(2-(dimethylamino)acetamido)-N,3-dimethylbutanamide]		< 5
